Like-named read-outs stand apart in the source and are kept apart here.
Key:
[1] = in toluene, reference standard whose quantum yield is known; cited from earlier work
[2] = molar extinction spectrum in THF; type: physicochemical
Source text: The absorbance peaks and molar extinction coefficients are shown below in Table 2.
The Absorbance peaks and molar extinction coefficients are shown below in Table 3.
The absorbance peaks and molar extinction coefficients are shown below in Table 4.

[3] = tested on: mouse colon adenocarcinoma cell line Colo26; settings: colo26 cells; for cell kill on irradiation: irradiation with 100 J cm^-2 white light; for photodynamic activity: 100 J cm^-2 white light
Description: Evaluation of in vitro Photodvnamic Tumour Cell Kill
The non-metastasing mouse colon adenocarcinoma cell line Colo26 was maintained in monolayer culture in RPMI 1640 glutamax medium supplemented with 10% heat-inactivated foetal calf serum, 100 U ml^−1 penicillin and 100 mg ml^−1 streptomycin. Cells grown to confluence were separated by trypsinisation to produce a suspension of 1.39 million cells per ml. A sample of 2.16 ml of this cell suspension was diluted to 50 ml with CM10 medium to give suspensions of 60,000 cells per ml. 100 μl of this suspension containing 6000 cells was added to each of the 60 inner wells of two 96-well culture plates. The outer wells of each plate were filled with sterile water. This was done to avoid errors resulting from the loss by evaporation of the rather small volumes of cell culture medium. The cells were incubated at 37° C. and 5% CO2 in a humidified incubator for 24 hours. A further 100 μl of cell culture medium containing a range of concentrations of each photosensitiser and tetrahydoflran (THF) vehicle was then added to groups of six wells. Tetrahydrofuran was chosen as solvent because it is relatively freely miscible with water and a pilot experiment had shown that incubation of cells for 48 hours with 0.5-1% THF had no effect on cell growth. An initial stock solution of 200 μl of each photosensitiser in THF was prepared and this solution used to prepare a series of sub-stock solutions in cell culture medium CM10 for addition to the tumour cell cultures.
After 20 hours of incubation with the cells, the medium containing the sensitiser and vehicle was removed and the cells washed once with buffer solution at 37° C. before the addition of fresh cell culture medium without photosensitiser or vrhicle. One of the two cell culture plates was then protected from light with aluminium foil and placed alongside the other plate which was irradiated with 100 joules cm^−2 of full-spectrum white light from an Applied Photophysics Irradiator. The light was delivered to the base of the 96-well plate through a glass platform (which served to filter short-wavelength ultraviolet light) as a 20 cm diameter spot. After irradiation both plates were returned to the incubator for a further 18 hours.
Cell growth inhibition following incubation with each photosensitiser and irradiation was determined using the European Union approved Neutral Red photocyiotoxicity protocol (Annexe II to Directive 2000/33/EC) adapted for visible light irradiation and the use of colo26 cells.

[4] = concentrations of 0.5 μM and above

For C=Cc1c(C)c2cc3nc(c4c5[n-]c(cc6nc(cc1[n-]2)C(C)=C6CC)c(C)c5C(=O)[C@@H]4C(=O)OC)[C@@H](CCC(=O)OC/C=C(\C)CCC[C@H](C)CCC[C@H](C)CCCC(C)C)[C@@H]3C.[Mg+2] [chlorophyll A], the “singlet oxygen quantum yield of reference” value [1] is given as 0.6.

In the case of CCCCCCCCCCCCCCCCOc1ccc(C2=C3C=CC(=N3)C(c3ccccc3)=c3ccc([nH]3)=CC3=NC(=CC4=CC=C2S4)C=C3)cc1 [porphyrin (8), 5-(4-hexadecyloxyphenyl)-10-(phenyl)-15,20-H-21-thiaporphryin], the “molar extinction coefficient ε” value ([2]; peak wavelength 418, THF) is reported as 300,000 1 mol^−1 cm^−1, the “molar extinction coefficient ε” value ([2]; peak wavelength 502, THF) is reported as 29,800 1 mol^−1 cm^−1 and the “molar extinction coefficient ε” value ([2]; peak wavelength 532, THF) is reported as 5,300 1 mol^−1 cm^−1. For the same compound, the “molar extinction coefficient ε” value ([2]; peak wavelength 606, THF) was 4,900 1 mol^−1 cm^−1, the “molar extinction coefficient ε” value ([2]; peak wavelength 668, THF) was 3,000 1 mol^−1 cm^−1 and the “cell kill on irradiation” value ([3]; 2 μM and above) was “approaching total cell kill”. The photodynamic activity [3] was “photodynamic activity” and the “cell kill on irradiation” value [3, 4] was “substantial cell kill”.

With CCCCCCCCCCCCCCCCOc1ccc(-c2c3nc(c(-c4ccccc4)c4ccc([nH]4)c(C#Cc4ccccn4)c4nc(c(C#Cc5ccccn5)c5ccc2s5)C=C4)C=C3)cc1 [porphyrin (10), 5-(4-hexadecyloxyphenyl)-10-(phenyl)-15,20-(2-ethynylpyridine)-21-thiaporphyrin] the “molar extinction coefficient ε” value ([2]; peak wavelength 456, THF) was 378,985 1 mol^−1 cm^−1, the “molar extinction coefficient ε” value ([2]; peak wavelength 537, THF) was 24,330 1 mol^−1 cm^−1 and the “molar extinction coefficient ε” value ([2]; peak wavelength 589, THF) was 40,385 1 mol^−1 cm^−1. For the same compound, the “molar extinction coefficient ε” value ([2]; peak wavelength 659, THF) was 6,335 1 mol^−1 cm^−1, the “molar extinction coefficient ε” value ([2]; peak wavelength 708, THF) was 11,635 1 mol^−1 cm^−1 and the “molar extinction coefficient ε” value ([2]; peak wavelength 724, THF) was 13,320 1 mol^−1 cm^−1. The “cell kill on irradiation” value ([3]; 2 μM and above) was “approaching total cell kill”, the photodynamic activity [3] was “photodynamic activity” and the “cell kill on irradiation” value [3, 4] was “substantial cell kill”.

From patent US20070015742A1, “Porphyrin derivatives” (priority 2003, published 2007)
